Molecules are shown by their SMILES. Several values for one entry are separate records, joined by “and”; a condition that tells them apart may be missing. Equal values may be shown once. Read-outs that look alike come from different tables or passages of the source.

Consider four compounds from US8633319B2, “7-(1H-pyrazol-4-yl)-1,6-naphthyridine compounds as Syk inhibitors” (Glaxo Group Limited, priority 2010, dated 2014).

One series has as its target T1, SYK lysate (Homo sapiens, UniProt P43405).
T1 construct: Stimulation of Ramos Cells with Anti-IgM Ab to Produce Syk & Preparation of Lysates; endogenous in cells; host or cells: Ramos B cells (human Burkitt's lymphoma, clone 296.4C10, ATCC), stimulated with anti-IgM and lysed in 1% Triton X-100
Nature of the series: Basic Syk Enzyme Activity. The format is biochemical. The following applies: read-out: average pIC50 (converted). Here is the method: 3 μl of SYK lysate diluted 16-fold in assay buffer (20 mM TRIS pH 7.4, 0.01% BSA, 0.1% Pluronic F-68) was added to wells containing 0.1 μl of various concentrations of compound or DMSO vehicle (1.7% final) in a Greiner low volume 384 well black plate. Following 15 min pre-incubation at room temperature, the reaction was initiated by the addition of 3 μl of substrate reagent containing Y7 Sox peptide, (Invitrogen Cat. # KNZ3071, 5 μM final), ATP (35 μM final) and MgCl2 (10 mM final) in assay buffer. The reaction was incubated at room temperature before measuring fluorescence intensity (λex 360/λem 485) on an Envision plate reader (Perkin Elmer Life Sciences, Waltham, Mass., USA) at 15 min and 55 min post-substrate addition.
Ramos B Cells (human B cells of Burkitt's lymphoma, clone 296.4C10, ATCC) were cultured in suspension in growth medium (RPMI-1640, Sigma; supplemented with 2 mM L-glutamine, Gibco; 10 mM Hepes, Sigma; 1 mM sodium pyruvate, Sigma; 10% v/v heat-inactivated FCS, Gibco). Cells were grown in Corning Cellstacks (6360 cm^2) in 1 liter volume and viability and cell density were monitored daily. Cells were maintained at <1.5×10e6/ml and >92% viability.
Cells were stimulated at 20×10^6 cells/ml using 15 ug/ml (final concentration) anti-IgM antibody. Following harvest (as described above), a total of 4×10^9 cells were resuspended in 180 ml pre-warmed (37° C.) DPBS in a Corning 500 ml centrifuge bottle. 20 ml anti-IgM antibody at 150 ug/ml were added to each 500 ml centrifuge bottle (working stock made up in DPBS pre-warmed to 37° C.). Cells were incubated for exactly 5 min at 37° C. following the addition of anti IgM antibody. Following 5 min stimulation, 300 ml ice-cold DPBS were added to each bottle to stop the stimulation (temperature drops to ˜12° C.) then cells were centrifuged at 2000 rpm (Sorvall Legend RT+ centrifuge—pre-chilled to 4° C.). Cells were washed by resuspension in ice-cold DPBS and centrifugation as above. The cell pellet was then lysed in ice-cold lysis buffer containing 1% triton-x-100 at a ratio of 150 ul/1×10^7 cells (i.e. 48 ml lysis buffer). Following the addition of lysis buffer, the cells were pipetted up & down & kept on ice for 15 min. The clarified lysate was then obtained by centrifugation (Sorvall Evolution RC (SLA-1500 rotor, ˜20,000 g (˜14,500 rpm), 45 min, 4° C.).
Lysate was aliquoted, snap-frozen on dry-ice & stored at −80° C. prior to assay.
Lysis Buffer: 50 mM TRIS pH7.5+150 mM NaCl+1% Triton-X-100+2 mM EGTA+1:100 dilution inhibitor cocktails (phosphatase inhibitor cocktail set II, calbiochem cat no. 524625 & protease inhibitor cocktail set V, calbiochem cat no. 539137)

A further series concerns Whole blood B cells. Kind of series: CD69 Whole Blood Assay. It counts as cell-based. The following applies: Homo sapiens, B-cell, anti-IgM stimulated. Here is the method: Whole blood B cells are stimulated ex-vivo using anti-IgM. […] The subsequent autophosphorylation of Syk leads to initiation of a signalling cascade resulting in B cell activation as indicated by expression of the activation marker CD69 on the cell surface. CD20/CD69+ve whole blood B cells are detected by flow cytometry.
100 μl heparinised human blood was added to a 5 ml polypropylene tube containing 1 μl appropriately diluted compound solution and incubated for 25 min at 37° C. with 5% CO2. B cells were stimulated with 10 μl Fab′2 fragments of goat anti-human IgM (43 μg/ml final concentration) for a further 3.5 h under the conditions previously described. The red blood cells were lysed and all other cells fixed by the addition of 2 ml Lyse/Fix buffer for 10 min at room temperature.
The cells were stained using a cocktail of mouse anti-human CD20 FITC and mouse anti-human CD69 PE conjugated antibodies. CD20/CD69+ve B cells present in the sample were detected by flow cytometry.
Compound was prepared as a 10 mM stock in DMSO, further diluted down in DMSO to 1 mM and a dilution series prepared in DMSO using 7 successive 3-fold dilutions to give the final concentration range to be tested of 1×10^−5 to 4.57×10^−9M. Compound dilutions were prepared using the Biomek 2000 automated robotic pipetting system.

For series [1], the system named is Salmonella typhimurium strains and Escherichia coli. Kind of series: Bacterial Mutation Screening Assay (Ames Test). The following applies: as the free base; presence and absence of S9-mix. The text has this: The bacterial mutation assay (Ames Test) is a short-term reverse mutation assay specifically designed to detect a wide range of chemical substances that can produce genetic damage that leads to gene mutations (base pair substitutions and frameshift mutations).
The test employs several histidine dependent Salmonella typhimurium strains and several tryptophan dependent strains of Escherichia coli each carrying different mutations in various genes in the histidine or tryptophan operon respectively. These mutations act as hot spots for mutagens that cause DNA damage via different mechanisms.
Briefly, bacteria are cultured for 10 h prior to the test. Top agar is supplemented with trace amounts of histidine, biotin, and tryptophan and aliquoted, before adding the required test article, vehicle or positive control followed by the appropriate bacterial suspension, and either an exogenous mammalian oxidative metabolism system (S9-mix) or buffer solution. The final mixture is poured over minimal agar plates which are then inverted and incubated before scoring for revertant colonies.
Bacterial Strains routinely used are Salmonella typhimurium strains TA98, TA100 TA1535 and TA1537 and Escherichia coli WP2 uvrA (pKM101).
Assays are performed in the presence and absence of an exogenous mammalian oxidative metabolising system (S9-mix), to mimic mammalian metabolism.
The highest concentration tested is one that allows maximum exposure up to 5000 μg/plate for freely soluble compounds, or the limit of solubility or toxicity (whichever is the lower). If compound solubility is a limiting factor, the maximum concentration chosen will be the lowest concentration at which compound precipitate is observed by eye on treatment plates at the end of the incubation period.
A single mutation assay (using the plate incorporation methodology) is conducted in the presence and absence of S9-mix (consisting of 4 replicate plates for vehicle controls and 2 replicate plates for the positive controls and test article).
Plates are usually scored electronically for bacterial colony formation following inspection of the plates for signs of toxicity (i.e. reduced growth (diminution) of background lawn, the presence of pin-dot/pseudorevertant colonies and/or a reduction in colony numbers). Plates will also be evaluated (by eye) for compound precipitation. […]
The number of colonies on each plate is recorded and mean values calculated for each concentration of test article used. Mean values are also be expressed as a ratio of the mean concurrent vehicle control value (i.e. fold increase). […]

Where [2] appears, read: as the free base, read-out: average IC50.
Where [3] appears, read: hydrochloric acid salts, read-out: average IC50.
[4] abbreviates: hydrochloric acid salts, read-out: average pIC50 (converted).

Take `CCn1cc(-c2cc3ncccc3c(NC[C@]3(F)CCCNC3)n2)cn1` [Example 1, 7-(1-Ethyl-1H-pyrazol-4-yl)-N-{[(3S)-3-fluoro-3-piperidinyl]methyl}-1,6-naphthyridin-5-amine]: the IC50 was ≤ 100 nM and 25.1 nM at SYK lysate (as the free base); not above 316 nM on SYK lysate (hydrochloric acid salts); less than 1000 nM with Whole blood B cells (setting [2]); less than 1000 nM in the series on Whole blood B cells (setting [3]); not above 1000 nM in the series with Whole blood B cells (setting [4]). In addition, the Ames test result in series [1] is reported as “negative”.
Regarding `CC(C)(C)n1cc(-c2cc3ncccc3c(NC[C@]3(F)CCCNC3)n2)cn1` [Example 2, 7-[1-(1,1-Dimethylethyl)-1H-pyrazol-4-yl]-N-{[(3S)-3-fluoro-3-piperidinyl]methyl}-1,6-naphthyridin-5-amine], the IC50 is ≤ 100 nM and 20 nM at SYK lysate (as the free base); not above 316 nM on SYK lysate (hydrochloric acid salts); less than 1000 nM with Whole blood B cells (setting [2]); less than 1000 nM in the series with Whole blood B cells (setting [3]); not above 1000 nM in the series on Whole blood B cells (setting [4]). For the same compound, the Ames test result in series [1] is on record as “negative”.
Turning to `CCn1cc(-c2cc3ncccc3c(OC[C@]3(F)CCCNC3)n2)cn1` [Example 4, 7-(1-Ethyl-1H-pyrazol-4-yl)-5-({[(3S)-3-fluoro-3-piperidinyl]methyl}oxy)-1,6-naphthyridine], the IC50 at SYK lysate (as the free base) is ≤ 100 nM and 7.94 nM; at SYK lysate (hydrochloric acid salts), not above 316 nM; with Whole blood B cells (setting [2]) it was less than 1000 nM; in the series with Whole blood B cells (setting [3]), less than 1000 nM; in the series with Whole blood B cells (setting [4]) it was not above 1000 nM. The Ames test result in series [1] is “negative”.
For `COCn1cc(-c2cc3ncccc3c(NC[C@]3(F)CCCNC3)n2)cn1` [Example 3, N-{[(3S)-3-Fluoro-3-piperidinyl]methyl}-7-{1-[(methyloxy)methyl]-1H-pyrazol-4-yl}-1,6-naphthyridin-5-amine], the IC50 was ≤ 100 nM and 63.1 nM at SYK lysate (as the free base); not above 316 nM at SYK lysate (hydrochloric acid salts); less than 1000 nM in the series on Whole blood B cells (setting [2]); less than 1000 nM with Whole blood B cells (setting [3]); not above 1000 nM with Whole blood B cells (setting [4]). Besides, the Ames test result in series [1] was “negative”.
